In ChEMBL document CHEMBL1122891, “Substituted 5H-dibenz[b,g]-1,4-oxazocines and related amino acids with antiinflammatory activity” (1985):

Assays:
Format in all cases: functional
Rattus norvegicus [1] = experiment: Percent reduction in swelling of the left hind paw in rat determined in adjuvant arthritis test, 50 mg/kg dose perorally; details: route oral
Rattus norvegicus [2] = experiment: Percent reduction in swelling of the left hind paw in rat determined in adjuvant arthritis test, 25 mg/kg dose was perorally; details: route oral
Rattus norvegicus [3] = species on record: Rattus norvegicus; experiment: Activity relative to fenclofenac determined in adjuvant arthritis test
Rattus norvegicus [4] = experiment: Percent reduction in swelling of the left hind paw in rat when 10 mg/kg of dose was injected perorally which was determined in adjuvant arthritis test; details: route oral
Rattus norvegicus [5] = experiment: Percent reduction in swelling of the left hind paw in rat when 100 mg/kg of dose was injected perorally which was determined in adjuvant arthritis test; details: route oral
Rattus norvegicus [6] = experiment: Minimum ulcerogenic dose was evaluated 24 hours after peroral administration; value may range from 100-200

O=C(Cl)N1CCc2ccccc2Oc2c(Cl)cc(Cl)cc21
Reduction (Rattus norvegicus [1]): 7%

NNC(=O)N1CCc2ccccc2Oc2c(Cl)cc(Cl)cc21
Reduction (Rattus norvegicus [2]): 32%
Relative potency (Rattus norvegicus [3]): 0.6

Nc1cc(Cl)c(Cl)c(Cl)c1Oc1ccccc1CC(=O)O
Reduction (Rattus norvegicus [4]): 33%
Relative potency (Rattus norvegicus [3]): 8.2

Cc1cccc(CC(=O)O)c1Oc1c(Cl)cccc1[N+](=O)[O-]
Reduction (Rattus norvegicus [2]): 0%

Cc1cc(Cl)c2c(c1)NCCc1cc(Cl)ccc1O2
Relative potency (Rattus norvegicus [3]): 0.5
Reduction (Rattus norvegicus [5]): 21%

COc1cc(Cl)c2c(c1)NCCc1ccccc1O2
Reduction (Rattus norvegicus [1]): 18%

O=C(O)Cc1ccccc1Oc1cc(Cl)cc(Cl)c1[N+](=O)[O-]
Reduction (Rattus norvegicus [4]): 34%
Relative potency (Rattus norvegicus [3]): 2.9

C[N+]1([O-])CCc2ccccc2Oc2c(Cl)cccc21 (stereo unspecified)
Reduction (Rattus norvegicus [2]): 23%
Relative potency (Rattus norvegicus [3]): 0.7

CCN(CC)C(=O)Cc1ccccc1Oc1c(N)cccc1Cl
Reduction (Rattus norvegicus [1]): 6%

CN1CCc2cc(Cl)ccc2Oc2c(Cl)cccc21
Reduction (Rattus norvegicus [1]): 13%

CC(=O)NNC(=O)N1CCc2ccccc2Oc2c(Cl)cc(Cl)cc21
Reduction (Rattus norvegicus [5]): 18%

CCc1cc(Cl)cc(N)c1Oc1ccccc1CC(=O)O
Reduction (Rattus norvegicus [4]): 25%
Relative potency (Rattus norvegicus [3]): 2.8

Cc1ccc2c(c1)CCN(C)c1cccc(Cl)c1O2
Reduction (Rattus norvegicus [1]): 15%

CN1CCc2ccccc2Oc2c(Cl)cccc21
Relative potency (Rattus norvegicus [3]): 1.4
Reduction (Rattus norvegicus [1]): 31%

Cc1ccc2c(c1)CCNc1cc(Cl)c(Cl)cc1O2
Reduction (Rattus norvegicus [1]): 8%

O=C(c1ccc(Cl)cc1)N1CCc2ccccc2Oc2c(Cl)cc(Cl)cc21
Reduction (Rattus norvegicus [1]): 0%

Clc1ccc2c(c1)Oc1ccccc1CCN2
Reduction (Rattus norvegicus [1]): 0%

CCCN1CCc2ccccc2Oc2c(Cl)cc(Cl)cc21
Relative potency (Rattus norvegicus [3]): 0.6
Reduction (Rattus norvegicus [1]): 39%

Cc1ccc2c(c1)CCNc1cccc(Cl)c1O2
Reduction (Rattus norvegicus [1]): 22%

Nc1c(Cl)cc(Cl)cc1Oc1ccccc1CC(=O)O
Reduction (Rattus norvegicus [4]): 37%
Relative potency (Rattus norvegicus [3]): 6.6

Cc1ccc(Oc2cc(Cl)c(Cl)cc2N)c(CC(=O)O)c1
Reduction (Rattus norvegicus [2]): 10%

COC(=O)Cc1ccccc1Oc1c(Cl)cc(Cl)cc1NC(C)=O
Reduction (Rattus norvegicus [2]): 18%

C[N+]1([O-])CCc2ccccc2Oc2c(Cl)cc(Cl)cc21 (stereo unspecified)
Relative potency (Rattus norvegicus [3]): 2.2
Reduction (Rattus norvegicus [1]): 42%

CCc1cc(N)c(Oc2ccc(C)cc2CC(=O)O)c(F)c1
Reduction (Rattus norvegicus [2]): 1%
MUD (Rattus norvegicus [6]): 100 mg/kg

Cc1c(Cl)ccc(N)c1Oc1ccccc1CC(=O)O
Reduction (Rattus norvegicus [2]): 34%
Relative potency (Rattus norvegicus [3]): 4.1
MUD (Rattus norvegicus [6]): 100 mg/kg

Oc1ccc2c(c1)CCNc1cc(Cl)cc(Cl)c1O2
Reduction (Rattus norvegicus [4]): 2%

NC(=O)Cc1ccccc1Oc1c(N)cccc1Cl
Reduction (Rattus norvegicus [1]): 14%

Cc1cc(N)c(Oc2ccc(C)cc2CC(=O)O)c(Cl)c1
Reduction (Rattus norvegicus [2]): 3%

Clc1ccc2c(c1)CCNc1cc(Cl)cc(Cl)c1O2
Relative potency (Rattus norvegicus [3]): 0.8
Reduction (Rattus norvegicus [1]): 25%

O=C(O)Cc1ccccc1Oc1ccc(C(F)(F)F)cc1[N+](=O)[O-]
Reduction (Rattus norvegicus [5]): 29%

Clc1cccc2c1Oc1ccccc1CCN2
Relative potency (Rattus norvegicus [3]): 0.2
Reduction (Rattus norvegicus [5]): 33%

O=C(O)Cc1ccccc1Oc1c(Cl)cc(Cl)c(Cl)c1[N+](=O)[O-]
Reduction (Rattus norvegicus [4]): 30%

O=C(O)Cc1ccccc1Oc1ccccc1[N+](=O)[O-]
Reduction (Rattus norvegicus [1]): 1%

COc1cc(N)c(Oc2ccccc2CC(=O)O)c(Cl)c1
Reduction (Rattus norvegicus [2]): 24%

Cc1cccc([N+](=O)[O-])c1Oc1ccccc1CC(=O)O
Reduction (Rattus norvegicus [4]): 26%

Nc1cccc(Cl)c1Oc1ccccc1CC(=O)OC1OC(=O)c2ccccc21 (stereo unspecified)
Reduction (Rattus norvegicus [5]): 36%

Fc1cccc2c1Oc1ccccc1CCN2
Reduction (Rattus norvegicus [1]): 0%

C/C=C/CN1CCc2ccccc2Oc2c(Cl)cc(Cl)cc21
Reduction (Rattus norvegicus [1]): 21%

CCCC(=O)N1CCc2ccccc2Oc2c(Cl)cc(Cl)cc21
Reduction (Rattus norvegicus [5]): 8%

COC(=O)Cc1ccccc1Oc1c(Cl)cccc1[N+](=O)[O-]
Reduction (Rattus norvegicus [2]): 31%

Cc1cc(Cl)cc2c1Oc1ccccc1CCN2
Relative potency (Rattus norvegicus [3]): 0.9
Reduction (Rattus norvegicus [1]): 32%

Nc1cccc(F)c1Oc1ccccc1CC(=O)O
Reduction (Rattus norvegicus [2]): 27%

Nc1ccc(Cl)cc1Oc1ccccc1CC(=O)O
Reduction (Rattus norvegicus [2]): 12%

Cc1cc(N)c(Oc2ccccc2CC(=O)O)c(Cl)c1
Reduction (Rattus norvegicus [2]): 20%

CCc1cc(N)c(Oc2ccc(C)cc2CC(=O)O)c(Cl)c1
Reduction (Rattus norvegicus [2]): 34%
Relative potency (Rattus norvegicus [3]): 1

COC(=O)Cc1ccccc1Oc1c(N)cccc1Cl
Reduction (Rattus norvegicus [2]): 35%

Cc1c(Cl)c(C)c2c(c1Cl)Oc1ccccc1CCN2
Reduction (Rattus norvegicus [1]): 6%

Nc1cccc(Cl)c1Oc1cc(Cl)ccc1CC(=O)O
Reduction (Rattus norvegicus [2]): 1%

O=C(Cc1ccccc1Oc1c(Cl)cccc1[N+](=O)[O-])NO
Reduction (Rattus norvegicus [1]): 36%

CCOC(=O)N1CCc2ccccc2Oc2c(Cl)cc(Cl)cc21
Reduction (Rattus norvegicus [4]): 21%
Relative potency (Rattus norvegicus [3]): 0.5

CNc1cccc(Cl)c1Oc1ccccc1CCO
Reduction (Rattus norvegicus [4]): 36%
Relative potency (Rattus norvegicus [3]): 5
MUD (Rattus norvegicus [6]): 100 mg/kg

CNc1cc(Cl)cc(C)c1Oc1ccccc1CC(=O)O
Reduction (Rattus norvegicus [4]): 28%
Relative potency (Rattus norvegicus [3]): 2.8

Cc1ccc2c(c1)NCCc1ccccc1O2
Reduction (Rattus norvegicus [1]): 0%

CNC(=O)N1CCc2ccccc2Oc2c(Cl)cc(Cl)cc21
Reduction (Rattus norvegicus [4]): 4%

CCC(C)c1cc(N)c(Oc2ccc(C)cc2CC(=O)O)c(Cl)c1 (stereo unspecified)
Reduction (Rattus norvegicus [4]): 10%

Cc1cc(Cl)cc([N+](=O)[O-])c1Oc1ccccc1CC(=O)O
Reduction (Rattus norvegicus [2]): 34%
Relative potency (Rattus norvegicus [3]): 3.3

Clc1ccc(CN2CCc3ccccc3Oc3c(Cl)cc(Cl)cc32)cc1
Reduction (Rattus norvegicus [1]): 10%

Cc1cc(N)c(Oc2ccc(Cl)cc2CC(=O)O)c(Cl)c1
Reduction (Rattus norvegicus [2]): 32%
Relative potency (Rattus norvegicus [3]): 1.4

O=C(O)Cc1ccccc1Oc1c([N+](=O)[O-])ccc(Cl)c1Cl
Reduction (Rattus norvegicus [2]): 25%

CCC[N+]1([O-])CCc2ccccc2Oc2c(Cl)cc(Cl)cc21 (stereo unspecified)
Reduction (Rattus norvegicus [1]): 36%

CCc1cc(Cl)c2c(c1)NCCc1cc(C)ccc1O2
Reduction (Rattus norvegicus [5]): 13%

Cc1ccc2c(c1)CCNc1cc(Cl)cc(Cl)c1O2
Reduction (Rattus norvegicus [1]): 17%

Clc1ccc2c(c1)CCNc1c(Cl)ccc(Cl)c1O2
Reduction (Rattus norvegicus [1]): 14%

CCC(C)c1cc(Cl)c2c(c1)NCCc1cc(C)ccc1O2 (stereo unspecified)
Reduction (Rattus norvegicus [1]): 14%

CC(C)(C)OC(=O)Cc1ccccc1Oc1c(Cl)cccc1[N+](=O)[O-]
Reduction (Rattus norvegicus [1]): 21%

C=CCN1CCc2ccccc2Oc2c(Cl)cc(Cl)cc21
Reduction (Rattus norvegicus [1]): 18%

Clc1ccc2c(c1)CCNc1cccc(Cl)c1O2
Reduction (Rattus norvegicus [1]): 16%

Clc1ccc2c(c1)Oc1c(Cl)cccc1NCC2
Reduction (Rattus norvegicus [1]): 10%

CN1CCc2ccccc2Oc2c(Cl)cc(Cl)cc21
Relative potency (Rattus norvegicus [3]): 2.4
Reduction (Rattus norvegicus [1]): 35%

O=CN1CCc2ccccc2Oc2c(Cl)cccc21
Reduction (Rattus norvegicus [5]): 33%

COC(=O)Cc1ccccc1Oc1c(Cl)cc(Cl)cc1N(C)C
Reduction (Rattus norvegicus [4]): 33%
Relative potency (Rattus norvegicus [3]): 2.7

O=C(O)Cc1ccccc1Oc1c(Cl)cc(Cl)cc1[N+](=O)[O-]
Reduction (Rattus norvegicus [2]): 36%

O=C(O)Cc1cccc(Cl)c1Oc1c(Cl)cccc1[N+](=O)[O-]
Reduction (Rattus norvegicus [2]): 1%

O=C(O)Cc1ccccc1Oc1c([N+](=O)[O-])cc(Cl)c(Cl)c1Cl
Reduction (Rattus norvegicus [4]): 17%
Relative potency (Rattus norvegicus [3]): 0.6

Clc1cc(Cl)c2c(c1)N(Cc1ccccc1)CCc1ccccc1O2
Reduction (Rattus norvegicus [4]): 2%

Nc1cc(Cl)ccc1Oc1ccccc1CC(=O)O
Reduction (Rattus norvegicus [5]): 4%

Nc1cccc(N)c1Oc1ccccc1CC(=O)O
Reduction (Rattus norvegicus [2]): 5%

Clc1ccc2c(c1)NCCc1ccccc1O2
Reduction (Rattus norvegicus [1]): 0%

Nc1ccc(Cl)c(Cl)c1Oc1ccccc1CC(=O)O
Reduction (Rattus norvegicus [2]): 33%

c1ccc2c(c1)CCNc1ccccc1O2
Reduction (Rattus norvegicus [1]): 6%
